Laboratory results reported in US20130252923A1, “SKIN-BEAUTIFYING AGENT” (MEGMILK SNOW BRAND CO., LTD., priority 2007, published 2013).

Columns and labels:
[1] = test system: hairless mice (Hos: HR-1); assay: TEWL of the skin (Tewameter) after oral administration, animal test; assay type: in vivo; details: three weeks, positive control
Method: (§1) A skin-beautifying effect of milk-derived phospholipid was evaluated using the compositions containing milk-derived phospholipid obtained in Examples 1 and 2. In experiments 13-week-old hairless mice (Hos: HR-1) were used. […] A water content and TEWL of the skin of the tail and the base of the tail of the mice were measured at the initiation of the test and the completion of the test. Values obtained at the completion of the test were calculated by setting each value obtained at the initiation of the test as 100, and the obtained values were provided as a rate of increase. A water content of the skin and TEWL were measured with a Corneometer and a Tewameter manufactured by Courage +Khazaka electronic GmbH, respectively.

[2] = test system: hairless mice (Hos: HR-1); assay: Water content of the skin (Corneometer) after oral administration, animal test; assay type: in vivo; details: three weeks, positive control
Method: as §1

[3] = 3 mg sphingomyelin per kg body weight, oral once daily, value at initiation = 100

## sphingomyelin
[1]; [3]
  Rate of TEWL increase: 86%
[1]; 3 mg/kg sphingomyelin solely
  TEWL, times that of group A: 0.85 times
[2]; [3]
  Rate of water content increase: 124%
[2]; 3 mg/kg sphingomyelin solely
  water content of the skin, times as much as the water content of the skin of group A: 1.25 times
